The test system of data set [1] is M. tuberculosis H37Rv. As to the kind of experiment: In vitro bactericidal-effect analysis (CFU enumeration of checkerboard wells). The conditions noted are these: single drug at its MIC (FIC of 1); positive = reduction in CFU. The class given is cell-based, Mycobacterium tuberculosis. As to the method: For determining the extent of the bactericidal effect, sample wells which remained blue in the resazurin microtiter assay (REMA) and whose ΣFICs were within the synergistic-to-additive range (<0.7 for doublets and <1.5 for triplets) were plated on Middlebrook 7H10 agar medium and incubated at 37°C for 21 to 28 days, following which bacterial colonies were enumerated to obtain the net reduction in CFU in comparison to the counts for the untreated controls at the start of drug testing, as well as to that achieved when M. tuberculosis was exposed to each drug alone.

The test system of data set [2] is M. tuberculosis H37Rv. As to the kind of experiment: MIC determination, resazurin-based microplate assay. The settings on record: single drug. The format is cell-based, Mycobacterium tuberculosis.
Data set [3] is described as follows: In vivo pharmacokinetics in infected mice (plasma, LC-MS/MS). Further details: species or system BALB/c mice. The conditions noted are these: BALB/c, mouse, plasma, po, steady state, infected mice. As to the method:
The drugs were formulated in 0.5% hydroxypropyl methyl cellulose (HPMC)–0.1% Tween 80 suspensions as 3- or 4-drug combinations. Formulations were prepared by weighing and adding each compound to the bottle, according to the design. Formulation vehicle was added, and the suspension was stirred overnight. Only uniform suspensions were used, while those that precipitated were abandoned. Formulations were prepared every week, and compound stability was estimated at the end of the week. Pharmacokinetics (PK) analysis was performed on infected mice on the 20th day of dosing. Blood samples were collected from each mouse at 0.5, 2, 4, 6, and 24 h after compound administration. Blood samples of about 30 μl were collected from mice in all groups by serial sampling via the saphenous vein into Microvette CB300 tubes (Starstedt, Germany) coated with EDTA, and plasma (10 μl) was separated following centrifugation. Plasma samples were stored at –20°C until analysis using liquid chromatography-tandem mass spectrometry (LC-MS/MS).
A 1-mg/ml stock solution of each compound was prepared in dimethyl sulfoxide (DMSO) for all of the analytes except PZA and LZD, for which the stock solution was 10 mg/ml in DMSO, and RIF, for which the stock solution was prepared in 50% acetonitrile in water. Three different sets of calibration standard (CS) combinations were prepared by 2-fold dilution of the stock solutions. CS set 1 contained analytes CLO, BDQ, PA824, PZA, and SQ109, CS set 2 contained analytes BTZ043, MXF, THI, EMB, and PZA, and CS set 3 contained LZD, INH, RIF, and PZA. A 16-point calibration curve was utilized for all analytes, and the standard curves ranged from 0.0005 to 20 μg/ml except for PZA and LZD, for which the standard curve range was 0.006 to 200 μg/ml. Plasma samples were precipitated by adding chilled acetonitrile (1:10, vol/vol) containing carbamazepine as an internal standard (10 ng/ml). Samples were vortexed and then centrifuged at 4,000 rpm for 30 min at 10°C. The resulting supernatant was mixed with the mobile phase (50% acetonitrile in water with 0.1% formic acid). Five microliters of the sample was injected on to a liquid chromatographic system (Acquity ultraperformance liquid chromatography [UPLC] system, Waters, Milford, MA) coupled to a triple-quadrupole mass spectrometer (Xevo TQ-S; Waters, Milford, MA). Samples were separated on an LC column (ACE 3 C18, 50 by 4.6 mm, 3 μm particle size; Advanced Chromatography Technologies, Aberdeen, Scotland) by isocratic elution with 40 parts of 20 mM ammonium formate containing 0.1% (vol/vol) formic acid and 60 parts of acetonitrile at a flow rate of 0.5 ml/min with a run time of 4 min. Samples were acquired in positive ion mode and detected by multiple reaction monitoring (MRM). The concentrations of the analyte were determined from a standard curve obtained by plotting known concentrations of the analyte against peak area ratios (analyte/internal standard peak response).
PK analyses of the plasma concentration-time relationships were performed with Phoenix software (version 6.2; Pharsight, USA). A noncompartmental analysis program, model 200, was used to calculate PK parameters. The maximum concentration of drug in plasma (Cmax), time to Cmax (Tmax), elimination half-life (t1/2), and area under the concentration-time curve (AUC) from time zero to infinity (AUC0–∞) were estimated. AUC was computed using the trapezoidal rule (linear up and log down), and the AUC0–∞ was considered only when the extrapolated AUC was not more than 20% of the original value. A minimum of three sample points in the terminal slope were used to calculate half-life.

Setting [4] is: 150 mg/kg, Group 1 quartet CFZ 20/BDQ 25/PA824 50/PZA 150 mg/kg oral, read-out: AUC0-24 in Quartet.
The mark [5] stands for this setting: 150 mg/kg, Group 1 quartet CFZ 20/BDQ 25/PA824 50/PZA 150 mg/kg oral, read-out: Cmax in Quartet.

In brackets after ≈: the same amount, converted by molar mass. Read-outs that look alike come from different tables or passages of the source.

Broadly, the MIC is the lowest concentration found to suppress growth. Read a high MIC as a need for much substance. With `NCC[C@H](O)C(=O)N[C@@H]1C[C@H](N)[C@@H](O[C@H]2O[C@H](CN)[C@@H](O)[C@H](O)[C@H]2O)[C@H](O)[C@H]1O[C@H]1O[C@H](CO)[C@@H](O)[C@H](N)[C@H]1O` [Amikacin], the “ΔLog10 CFU/ml at the MIC” value in data set [1] is on record as −0.20 Log10 CFU/ml. The MIC in data set [2] (Mycobacterium tuberculosis) turned out to be 0.43 µM (≈ 0.252 µg/mL).

The term Cmax denotes the maximum level reached in the sampled fluid or tissue. For `C[C@H]1COC2(CCN(c3nc(=O)c4cc(C(F)(F)F)cc([N+](=O)[O-])c4s3)CC2)O1` [BTZ043], the AUC(0-t) was determined as 15 ± 6.2 µg·h/mL in data set [3] (25 mg/kg, Group 6 triplet BTZ043 37.5/THI 800/SQ109 25 mg/kg oral, read-out: AUC0-24 in Triplet) and 11.1 ± 5 µg·h/mL in data set [3] (200 mg/kg, Group 3 triplet BTZ043 37.5/SQ109 25/MXF 200 mg/kg oral, read-out: AUC0-24 in Triplet). The peak concentration (Cmax) in data set [3] (25 mg/kg, Group 6 triplet BTZ043 37.5/THI 800/SQ109 25 mg/kg oral, read-out: Cmax in Triplet) was found to be 2100 ± 400 ng/mL; in data set [3] (200 mg/kg, Group 3 triplet BTZ043 37.5/SQ109 25/MXF 200 mg/kg oral, read-out: Cmax in Triplet) it was 2300 ± 900 ng/mL. For the same compound, in data set [1], the “ΔLog10 CFU/ml at the MIC” value is given as 1.40 Log10 CFU/ml. In data set [2] (Mycobacterium tuberculosis), this compound came in with an MIC of 0.0009 µM (≈ 0.000388 µg/mL).

On to `CC[C@H]1OC(=O)[C@H](C)[C@@H](O[C@H]2C[C@@](C)(OC)[C@@H](O)[C@H](C)O2)[C@H](C)[C@@H](O[C@@H]2O[C@H](C)C[C@H](N(C)C)[C@H]2O)[C@](C)(OC)C[C@@H](C)C(=O)[C@H](C)[C@@H](O)[C@]1(C)O` [Clarithromycin], for which, in data set [1], the “ΔLog10 CFU/ml at the MIC” value stood at 0.75 Log10 CFU/ml. In data set [2] (Mycobacterium tuberculosis), this compound showed a minimum inhibitory concentration (MIC) of 9.63 µM (≈ 7.2 µg/mL).

On to `CC(C)/N=c1\cc2n(-c3ccc(Cl)cc3)c3ccccc3nc-2cc1Nc1ccc(Cl)cc1` [Clofazimine], for which the AUC(0-t) was determined as 42.8 ± 5.4 µg·h/mL in data set [3] (50 mg/kg, Group 1 triplet CFZ 20/BDQ 25/PA824 50 mg/kg oral, read-out: AUC0-24 in Triplet) and 48 ± 5.2 µg·h/mL in data set [3] (setting [4]). For the same compound, the peak concentration (Cmax) came to 2300 ± 200 ng/mL in data set [3] (50 mg/kg, Group 1 triplet CFZ 20/BDQ 25/PA824 50 mg/kg oral, read-out: Cmax in Triplet) and 2400 ± 200 ng/mL in data set [3] (setting [5]). The “ΔLog10 CFU/ml at the MIC” value in data set [1] was 0.72 Log10 CFU/ml. This compound also yielded a minimal inhibitory concentration (MIC) in data set [2] (Mycobacterium tuberculosis) of 0.26 µM (≈ 0.123 µg/mL).

Turning to `N[C@@H]1CON=C1O` [D-Cycloserine], in data set [1], the “ΔLog10 CFU/ml at the MIC” value came to 0.87 Log10 CFU/ml. The MIC in data set [2] (Mycobacterium tuberculosis) stood at 30.6 µM (≈ 3.12 µg/mL).

For `NC[C@H]1O[C@H](O[C@H]2[C@H](O)[C@@H](O[C@H]3O[C@H](CO)[C@@H](O)[C@H](N)[C@H]3O)[C@H](N)C[C@@H]2N)[C@H](O)[C@@H](O)[C@@H]1O` [Kanamycin], the “ΔLog10 CFU/ml at the MIC” value in data set [1] was 0.44 Log10 CFU/ml. In data set [2], this compound yielded an MIC of 1.61 µM (≈ 0.78 µg/mL).

In the case of `C[C@@H](O)[C@H]1C(=O)N2C(C(=O)O)=C(S[C@@H]3CN[C@H](C(=O)N(C)C)C3)[C@H](C)[C@H]12` [Meropenem], the “ΔLog10 CFU/ml at the MIC” value in data set [1] was determined as 0.57 Log10 CFU/ml. Also, in data set [2] (Mycobacterium tuberculosis), 8.15 µM (≈ 3.13 µg/mL) was the least that counted as inhibitory (MIC).

As for `NC(=O)c1cnccn1` [Pyrazinamide], the AUC(0-t) in data set [3] (setting [4]) stood at 115 ± 6.5 µg·h/mL; in data set [3] (150 mg/kg, Group 2 quartet SQ109 25/BDQ 25/PA824 50/PZA 150 mg/kg oral, read-out: AUC0-24 in Quartet) it was 148 ± 2.1 µg·h/mL; in data set [3] (150 mg/kg, Group 3 quartet BTZ043 37.5/SQ109 25/MXF 200/PZA 150 mg/kg oral, read-out: AUC0-24 in Quartet), 156 ± 13.2 µg·h/mL; in data set [3] (150 mg/kg, Group 5 quartet EMB 100/BDQ 25/SQ109 25/PZA 150 mg/kg oral, read-out: AUC0-24 in Quartet), 144 ± 29.5 µg·h/mL; in data set [3] (150 mg/kg, Group 6 quartet BTZ043 37.5/THI 800/SQ109 25/PZA 150 mg/kg oral, read-out: AUC0-24 in Quartet) it was 154 ± 23.8 µg·h/mL; in data set [3] (150 mg/kg, Group 7 quartet PA824 50/BDQ 25/MXF 400/PZA 150 mg/kg oral, read-out: AUC0-24 in Quartet) it was 144 ± 16.9 µg·h/mL. Moreover, the AUC(0-t) in data set [3] (150 mg/kg, Group 8 quartet PA824 50/BDQ 25/EMB 100/PZA 150 mg/kg oral, read-out: AUC0-24 in Quartet) was 127 ± 9 µg·h/mL; in data set [3] (150 mg/kg, Group 9 quartet EMB 100/SQ109 25/LZD 130/PZA 150 mg/kg oral, read-out: AUC0-24 in Quartet), 119 ± 7 µg·h/mL; in data set [3] (150 mg/kg, Ref. regimen quartet INH 30/RIF 10/EMB 100/PZA 150 mg/kg oral, read-out: AUC0-24 in Quartet) it was 161 ± 18.8 µg·h/mL. For the same compound, the Cmax in data set [3] (setting [5]) was found to be 64000 ± 9800 ng/mL; in data set [3] (150 mg/kg, Group 2 quartet SQ109 25/BDQ 25/PA824 50/PZA 150 mg/kg oral, read-out: Cmax in Quartet) it was 64500 ± 3100 ng/mL; in data set [3] (150 mg/kg, Group 3 quartet BTZ043 37.5/SQ109 25/MXF 200/PZA 150 mg/kg oral, read-out: Cmax in Quartet), 42000 ± 700 ng/mL; in data set [3] (150 mg/kg, Group 5 quartet EMB 100/BDQ 25/SQ109 25/PZA 150 mg/kg oral, read-out: Cmax in Quartet), 67200 ± 2500 ng/mL; in data set [3] (150 mg/kg, Group 6 quartet BTZ043 37.5/THI 800/SQ109 25/PZA 150 mg/kg oral, read-out: Cmax in Quartet) it was 40200 ± 13300 ng/mL; in data set [3] (150 mg/kg, Group 7 quartet PA824 50/BDQ 25/MXF 400/PZA 150 mg/kg oral, read-out: Cmax in Quartet), 33200 ± 2300 ng/mL. Further, the Cmax came out at 69000 ± 12700 ng/mL in data set [3] (150 mg/kg, Group 8 quartet PA824 50/BDQ 25/EMB 100/PZA 150 mg/kg oral, read-out: Cmax in Quartet); 39500 ± 4400 ng/mL in data set [3] (150 mg/kg, Group 9 quartet EMB 100/SQ109 25/LZD 130/PZA 150 mg/kg oral, read-out: Cmax in Quartet); 69700 ± 9700 ng/mL in data set [3] (150 mg/kg, Ref. regimen quartet INH 30/RIF 10/EMB 100/PZA 150 mg/kg oral, read-out: Cmax in Quartet).

Take `[H]/N=C(/N)N[C@H]1[C@H](O)[C@@H](O)[C@H](O[C@@H]2O[C@@H](C)[C@](O)(C=O)[C@H]2O[C@@H]2O[C@@H](CO)[C@H](O)[C@@H](O)[C@@H]2NC)[C@@H](N/C(N)=N\[H])[C@@H]1O` [Streptomycin]: in data set [1], the “ΔLog10 CFU/ml at the MIC” value worked out at 0.36 Log10 CFU/ml. This compound also displayed an MIC in data set [2] (Mycobacterium tuberculosis) of 0.68 µM (≈ 0.395 µg/mL).

For the compound Capreomycin, the “ΔLog10 CFU/ml at the MIC” value in data set [1] was −0.11 Log10 CFU/ml. Also, the MIC in data set [2] worked out at 5.91 µM.

(Values after paper PMC4538536, “In Silico-Based High-Throughput Screen for Discovery of Novel Combinations for Tuberculosis Treatment” (Antimicrobial Agents and Chemotherapy, 2015).)
